ChEMBL document CHEMBL2057159, “Methylation of imidazoline related compounds leads to loss of α₂-adrenoceptor affinity. Synthesis and biological evaluation of selective I₁ imidazoline receptor ligands” (Bioorg Med Chem, 2012)
Active and inactive are the calls of the source. No cut-off for these calls is given here.

Tests used:
[1] = target: T1, Alpha-2B adrenergic receptor (Homo sapiens, UniProt P18089); test: Displacement of [3H]RX821001 from human alpha2B adrenoceptor expressed in CHO cells after 60 mins by gamma counter; type: cell-based
T1 sequence (P18089 whole entry): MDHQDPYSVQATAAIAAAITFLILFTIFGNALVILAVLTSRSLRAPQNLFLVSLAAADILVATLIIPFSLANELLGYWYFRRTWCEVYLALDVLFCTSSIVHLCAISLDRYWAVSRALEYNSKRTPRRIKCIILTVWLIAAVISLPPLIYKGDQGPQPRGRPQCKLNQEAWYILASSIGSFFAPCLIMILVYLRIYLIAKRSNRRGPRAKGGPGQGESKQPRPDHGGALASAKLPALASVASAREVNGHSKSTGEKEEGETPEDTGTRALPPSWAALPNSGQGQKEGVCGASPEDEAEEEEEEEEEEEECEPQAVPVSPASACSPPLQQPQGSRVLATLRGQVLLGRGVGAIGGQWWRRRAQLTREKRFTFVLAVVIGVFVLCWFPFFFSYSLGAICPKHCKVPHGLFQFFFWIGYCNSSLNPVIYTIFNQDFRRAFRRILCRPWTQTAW

[2] = target: Nischarin (Rattus norvegicus, UniProt Q4G017); test: Displacement of [125I]paraiodoclonidine from imidazoline I1 receptor in rat PC12 cells after 30 mins by gamma counter
Nischarin, sequence (Q4G017 whole entry): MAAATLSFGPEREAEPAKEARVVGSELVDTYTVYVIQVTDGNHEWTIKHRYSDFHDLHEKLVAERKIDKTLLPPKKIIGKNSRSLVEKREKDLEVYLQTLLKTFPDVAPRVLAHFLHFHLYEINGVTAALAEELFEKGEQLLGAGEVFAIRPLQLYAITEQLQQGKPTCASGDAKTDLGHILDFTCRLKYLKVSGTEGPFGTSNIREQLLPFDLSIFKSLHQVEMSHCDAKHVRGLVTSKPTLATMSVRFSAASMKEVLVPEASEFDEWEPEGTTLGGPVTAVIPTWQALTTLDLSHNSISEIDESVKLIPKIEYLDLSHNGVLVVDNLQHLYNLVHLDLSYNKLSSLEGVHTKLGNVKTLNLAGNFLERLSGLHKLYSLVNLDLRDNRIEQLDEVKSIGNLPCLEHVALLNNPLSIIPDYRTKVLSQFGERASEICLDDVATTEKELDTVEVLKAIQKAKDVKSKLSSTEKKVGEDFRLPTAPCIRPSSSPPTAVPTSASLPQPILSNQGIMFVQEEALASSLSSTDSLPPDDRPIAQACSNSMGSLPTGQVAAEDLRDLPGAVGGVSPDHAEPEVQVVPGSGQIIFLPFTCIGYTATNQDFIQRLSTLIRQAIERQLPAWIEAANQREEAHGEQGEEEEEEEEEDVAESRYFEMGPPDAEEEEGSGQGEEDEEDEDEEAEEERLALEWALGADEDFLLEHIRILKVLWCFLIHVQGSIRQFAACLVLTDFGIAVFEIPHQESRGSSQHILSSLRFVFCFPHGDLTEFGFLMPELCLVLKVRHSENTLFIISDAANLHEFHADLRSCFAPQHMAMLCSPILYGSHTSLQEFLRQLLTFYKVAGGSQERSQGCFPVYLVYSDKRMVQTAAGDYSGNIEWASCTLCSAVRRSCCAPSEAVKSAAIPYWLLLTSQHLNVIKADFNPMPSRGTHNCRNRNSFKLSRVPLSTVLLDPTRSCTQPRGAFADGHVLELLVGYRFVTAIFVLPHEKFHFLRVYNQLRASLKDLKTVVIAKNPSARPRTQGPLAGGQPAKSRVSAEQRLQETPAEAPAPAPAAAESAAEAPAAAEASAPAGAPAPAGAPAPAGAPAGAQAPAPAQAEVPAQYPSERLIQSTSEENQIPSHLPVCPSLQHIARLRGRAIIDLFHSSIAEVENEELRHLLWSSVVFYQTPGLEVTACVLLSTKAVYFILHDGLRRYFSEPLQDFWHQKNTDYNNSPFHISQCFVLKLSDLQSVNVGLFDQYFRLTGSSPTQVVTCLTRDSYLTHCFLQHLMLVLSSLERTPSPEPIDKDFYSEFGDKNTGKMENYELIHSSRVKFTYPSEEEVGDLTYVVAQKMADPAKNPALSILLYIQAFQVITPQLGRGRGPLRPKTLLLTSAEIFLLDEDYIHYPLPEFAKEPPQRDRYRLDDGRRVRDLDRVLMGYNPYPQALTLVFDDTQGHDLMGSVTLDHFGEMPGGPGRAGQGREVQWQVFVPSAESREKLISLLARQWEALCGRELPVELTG

[3] = target: T2, Alpha-2A adrenergic receptor (Homo sapiens, UniProt P08913); test: Displacement of [3H]RX821001 from human alpha2A adrenoceptor expressed in CHO cells after 60 mins […]; type: cell-based
T2 sequence (P08913 whole entry): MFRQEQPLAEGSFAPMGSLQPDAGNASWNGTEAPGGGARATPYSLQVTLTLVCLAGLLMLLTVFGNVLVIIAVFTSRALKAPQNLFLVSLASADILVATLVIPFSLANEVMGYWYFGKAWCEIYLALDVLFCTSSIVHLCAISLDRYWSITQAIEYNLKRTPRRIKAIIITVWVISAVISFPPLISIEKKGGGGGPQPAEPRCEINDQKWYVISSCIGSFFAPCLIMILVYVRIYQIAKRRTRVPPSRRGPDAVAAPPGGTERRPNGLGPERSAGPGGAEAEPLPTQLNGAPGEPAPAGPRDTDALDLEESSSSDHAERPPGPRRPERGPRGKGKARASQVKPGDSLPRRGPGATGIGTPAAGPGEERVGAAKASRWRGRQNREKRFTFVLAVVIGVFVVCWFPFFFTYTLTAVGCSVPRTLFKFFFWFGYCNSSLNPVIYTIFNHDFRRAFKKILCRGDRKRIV

[4] = target: T3, Alpha-2C adrenergic receptor (Homo sapiens, UniProt P18825); test: Displacement of [3H]RX821001 from human alpha2C adrenoceptor expressed in CHO cells after 60 mins […]; type: cell-based
T3 sequence (P18825 whole entry): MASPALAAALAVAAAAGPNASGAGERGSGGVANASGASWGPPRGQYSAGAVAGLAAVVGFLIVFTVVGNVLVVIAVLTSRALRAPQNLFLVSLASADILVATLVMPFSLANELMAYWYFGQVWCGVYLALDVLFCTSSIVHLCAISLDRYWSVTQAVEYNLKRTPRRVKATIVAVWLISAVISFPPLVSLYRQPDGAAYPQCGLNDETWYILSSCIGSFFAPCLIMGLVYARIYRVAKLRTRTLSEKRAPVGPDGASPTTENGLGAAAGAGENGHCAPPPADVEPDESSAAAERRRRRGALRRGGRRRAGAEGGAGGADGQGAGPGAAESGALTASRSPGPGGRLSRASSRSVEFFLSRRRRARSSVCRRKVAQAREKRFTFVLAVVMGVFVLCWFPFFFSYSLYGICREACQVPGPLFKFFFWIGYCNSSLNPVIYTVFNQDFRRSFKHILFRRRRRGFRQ

[5] = Displacement of [3H]idazoxan from imidazoline I2 receptor in New Zealand rabbit renal cortex homogenate after 60 mins […]; set-up: species or system Oryctolagus cuniculus
[6] = target: T4, Alpha-2B adrenergic receptor (Homo sapiens) (UniProt P18089); test: Selectivity ratio of compound to rilmenidine for human alpha2B adrenoceptor expressed in CHO cells after 60 mins […]; type: cell-based
T4 sequence (whole entry): T1 sequence (P18089 whole entry)

[7] = system: Rattus norvegicus; test: Hypotensive activity in spontaneous hypertensive rat assessed as decrease in mean blood pressure at 10 mg/kg, iv measured continuously during 30 mins; type: functional, organism-based; set-up: dose 10 mg/kg
[8] = target: T5, Alpha-2A adrenergic receptor (Homo sapiens) (UniProt P08913); test: Selectivity ratio of compound to rilmenidine for human alpha2A adrenoceptor expressed in CHO cells after 60 mins […]; type: cell-based
T5 sequence (whole entry): T2 sequence (P08913 whole entry)

[9] = target: T6, Alpha-2C adrenergic receptor (Homo sapiens) (UniProt P18825); test: Selectivity ratio of compound to rilmenidine for human alpha2C adrenoceptor expressed in CHO cells after 60 mins […]; type: cell-based
T6 sequence (whole entry): T3 sequence (P18825 whole entry)

[10] = system: Rattus norvegicus; test: Toxicity in spontaneous hypertensive rat assessed as vasoconstrictive activity at 1 mg/kg, iv; type: organism-based; set-up: dose 1 mg/kg, route intravenous; settings: in vivo
[11] = system: PC-12; test: Selectivity ratio of pKi for imidazoline I2 receptor in New Zealand rabbit renal cortex to pKi for imidazoline I1 receptor in rat PC12 cell; type: cell-based
[12] = system: PC-12; test: Selectivity ratio of pKi for human alpha2C adrenoceptor to pKi for imidazoline I1 receptor in rat PC12 cell; type: cell-based
[13] = system: PC-12; test: Selectivity ratio of pKi for human alpha2A adrenoceptor to pKi for imidazoline I1 receptor in rat PC12 cell; type: cell-based
[14] = system: PC-12; test: Selectivity ratio of pKi for human alpha2B adrenoceptor to pKi for imidazoline I1 receptor in rat PC12 cell; type: cell-based
[15] = system: Rattus norvegicus; test: Hypotensive activity in spontaneous hypertensive rat assessed as decrease in mean blood pressure at 1 mg/kg, iv measured after 5 mins relative to control; type: functional; set-up: scale not given: the % may be the effect or the level left

CC1CCC(=Nc2ccc(I)cc2Cl)N1 (centres undefined)
Ki [1]: 4170 nM
Ki [2]: 0.219 nM
Ki [3]: 2570 nM
Ki [4]: > 10 µM

C1COC(NC(C2CC2)C2CC2)=N1 [RILMENIDINE]
pKi [5]: < 5
Ki [1]: 42.7 nM
Ki [3]: 36.3 nM
Ki [4]: 0.0126 µM

CC1COC(NC(C2CC2)C2CC2)=N1 (centres undefined)
pKi [5]: < 5
Ratio [6]: 66
Ki [1]: 2820 nM
Ki [2]: 363 nM
Activity [7]: inactive
Ki [3]: 4900 nM
Ratio [8]: 135
Ratio [9]: > 794
Activity [10]: Non-toxic
Ki [4]: > 10 µM

CC1CCC(Nc2ccc(I)cc2Cl)=N1 (centres undefined)
pKi [5]: < 5
Ratio pKi [11]: > 45700
Ratio pKi [12]: > 45700
Ratio pKi [13]: 11700
Ratio pKi [14]: 19100

CC1CNC(Nc2c(Cl)cccc2Cl)=N1 (centres undefined)
pKi [5]: < 5
Ki [1]: 1320 nM
Ki [2]: 0.933 nM
Ki [3]: 1950 nM
Activity [10]: Non-toxic
Ki [4]: 5.75 µM
Activity [15]: 45%

CC1CCC(Nc2ccccc2Cl)=N1 (centres undefined)
pKi [5]: < 5
Ki [1]: > 10000 nM
Ki [2]: 132 nM
Activity [7]: inactive
Ki [3]: > 10000 nM
Activity [10]: Non-toxic
Ki [4]: > 10 µM

Clc1ccccc1NC1=NCCC1
pKi [5]: 6.1
Ki [1]: 933 nM
Ki [2]: 77.6 nM
Ki [3]: 3020 nM
Ki [4]: 5.01 µM

Clc1cccc(Cl)c1NC1=NCCN1 [CLONIDINE]
pKi [5]: < 5
Ki [2]: 282 nM
